Measured values: ChEMBL document CHEMBL5260814, “Design strategies in the prodrugs of HIV-1 protease inhibitors to improve the pharmaceutical properties” (Eur J Med Chem, 2017)
Converted amounts (≈) assume the structure as drawn.

How the values were obtained:
[1] = Solubility of compound; format: physicochemical
[2] = Stability of compound in PBS buffer at pH 7.3 assessed as half life; format: physicochemical
[3] = Cmax in rat in presence of Ritonavir; format: ADME; conditions: in vivo
[4] = AUC in rat in presence of Ritonavir; format: ADME; set-up: concentration or dose not given beside the values; conditions: in vivo
[5] = Water solubility of compound; format: physicochemical
[6] = Stability of compound in PBS at pH 7.4 assessed as half life; format: physicochemical
[7] = Stability of compound in PBS at pH 5.5 assessed as half life; format: physicochemical
[8] = Stability of compound in PBS at pH 4.9 assessed as half life; format: physicochemical
[9] = Metabolic stability in rat liver microsome assessed as half life […]; format: ADME; conditions: liver microsomes

Cc1cccc(C)c1OCC(=O)N[C@@H](Cc1ccccc1)[C@H](OC(=O)CCC(=O)NCc1ccncc1)C(=O)N1CSC(C)(C)[C@H]1C(=O)NC(C)(C)C
solubility [1]: 91.5 mg/mL (≈ 123 mM)

Cc1cccc(C)c1OCC(=O)N[C@@H](Cc1ccccc1)[C@H](OC(=O)CCC(=O)NCCN)C(=O)N1CSC(C)(C)[C@H]1C(=O)NC(C)(C)C
solubility [1]: 77.1 mg/mL (≈ 110 mM)

Cc1c(OC(=O)CCCCO[C@H]2O[C@H](CO)[C@@H](O)[C@H](O)[C@@H]2O)cccc1C(=O)N[C@@H](CSc1ccccc1)[C@@H](CN1C[C@H]2CCCC[C@H]2C[C@H]1C(=O)NC(C)(C)C)OC(=O)CCCCO[C@H]1O[C@H](CO)[C@@H](O)[C@H](O)[C@@H]1O
half-life [2]: 50 h

Cc1nc(COc2ccc(C[C@H](NC(=O)O[C@H]3CO[C@H]4OCC[C@H]43)[C@@H](CN(CC(C)C)S(=O)(=O)c3ccc4c(c3)OCO4)OC(=O)CO[n+]3ccccc3)cc2)cs1
Cmax ([3]; read-out: Cmax): 272 ng/mL
AUC ([4]; read-out: AUC): > 7700 ng·h/mL

Cc1nc(COc2ccc(C[C@H](NC(=O)O[C@H]3CO[C@H]4OCC[C@H]43)[C@@H](CN(CC(C)C)S(=O)(=O)c3ccc4c(c3)OCO4)OC(=O)COC(=O)[C@@H](N)CC(C)C)cc2)cs1
Cmax ([3]; read-out: Cmax): 776 ng/mL
AUC ([4]; read-out: AUC): 3960 ng·h/mL

CC(C)(C)NC(=O)[C@H]1N(C(=O)[C@@H](O)[C@H](Cc2ccccc2)NC(=O)COc2ccccc2)CSC1(C)C
solubility [5]: 0.047 mg/mL (≈ 0.0891 mM)

Cc1cccc(C)c1OCC(=O)O[C@H](C(=O)N1CSC(C)(C)[C@H]1C(=O)NC(C)(C)C)[C@@H](N)Cc1ccccc1.Cl
half-life [6]: < 1 min
half-life [7]: 4.5 min
half-life [8]: 24.8 min

Cc1nc(COc2ccc(C[C@H](NC(=O)O[C@H]3CO[C@H]4OCC[C@H]43)[C@H](O)CN(CC(C)C)S(=O)(=O)c3ccc4c(c3)OCO4)cc2)cs1 [BRECANAVIR]
Cmax [3]: 696 ng/mL
AUC [4]: 1960 ng·h/mL

CC(C)(C)NC(=O)[C@H]1C[C@@H]2CCCC[C@@H]2CN1C[C@@H](OC(=O)CCCCO[C@H]1O[C@H](CO)[C@@H](O)[C@H](O)[C@@H]1O)[C@H](Cc1ccccc1)NC(=O)[C@H](CC(N)=O)NC(=O)c1ccc2ccccc2n1
half-life [2]: 50 h

Cc1cccc(C)c1OCC(=O)O[C@H](C(=O)N1CSC[C@H]1C(=O)NC(C)(C)C)[C@@H](N)Cc1ccccc1.Cl
solubility [5]: 15 mg/mL
half-life [6]: < 1 min
half-life [7]: 4.2 min
half-life [8]: 23.8 min

Cc1c(OC(=O)CCCCO[C@H]2O[C@H](CO)[C@@H](O)[C@H](O)[C@@H]2O)cccc1C(=O)N[C@@H](CSc1ccccc1)[C@H](O)CN1C[C@H]2CCCC[C@H]2C[C@H]1C(=O)NC(C)(C)C
half-life [2]: 50 h

Cc1nc(COc2ccc(C[C@H](NC(=O)O[C@H]3CO[C@H]4OCC[C@H]43)[C@@H](CN(CC(C)C)S(=O)(=O)c3ccc4c(c3)OCO4)OC(=O)COCC(=O)Nc3ccn[nH]3)cc2)cs1
Cmax ([3]; read-out: Cmax): 603 ng/mL
AUC ([4]; read-out: AUC): 7040 ng·h/mL

CCN(CC)CC(=O)OCC(=O)O[C@H](CN(CC(C)C)S(=O)(=O)c1ccc2c(c1)OCO2)[C@H](Cc1ccc(OCc2csc(C)n2)cc1)NC(=O)O[C@H]1CO[C@H]2OCC[C@H]21
Cmax ([3]; read-out: Cmax): 318 ng/mL
AUC ([4]; read-out: AUC): 3690 ng·h/mL

Cc1nc(COc2ccc(C[C@H](NC(=O)O[C@H]3CO[C@H]4OCC[C@H]43)[C@@H](CN(CC(C)C)S(=O)(=O)c3ccc4c(c3)OCO4)OC(=O)COCC(=O)NCc3ccccn3)cc2)cs1
Cmax ([3]; read-out: Cmax): 640 ng/mL
AUC ([4]; read-out: AUC): 6810 ng·h/mL

Cc1nc(COc2ccc(C[C@H](NC(=O)O[C@H]3CO[C@H]4OCC[C@H]43)[C@@H](CN(CC(C)C)S(=O)(=O)c3ccc4c(c3)OCO4)OC(=O)COC(=O)[C@@H](N)CCCCN)cc2)cs1
Cmax ([3]; read-out: Cmax): 517 ng/mL
AUC ([4]; read-out: AUC): 4220 ng·h/mL

CNCC(=O)OCC(=O)O[C@H](CN(CC(C)C)S(=O)(=O)c1ccc2c(c1)OCO2)[C@H](Cc1ccc(OCc2csc(C)n2)cc1)NC(=O)O[C@H]1CO[C@H]2OCC[C@H]21
Cmax ([3]; read-out: Cmax): 356 ng/mL
AUC ([4]; read-out: AUC): 5600 ng·h/mL

Cc1cccc(C)c1OCC(=O)N[C@@H](Cc1ccccc1)[C@H](OC(=O)CCC(=O)NCCN1CCCC1)C(=O)N1CSC(C)(C)[C@H]1C(=O)NC(C)(C)C
solubility [1]: 93.8 mg/mL (≈ 125 mM)

CC(C)(C)NC(=O)[C@@H]1CSCN1C(=O)[C@@H](OC(=O)COc1ccccc1)[C@@H](N)Cc1ccccc1.Cl
solubility [5]: 32 mg/mL
half-life [6]: < 1 min
half-life [7]: 2.9 min
half-life [8]: 21.2 min

Cc1nc(COc2ccc(C[C@H](NC(=O)O[C@H]3CO[C@H]4OCC[C@H]43)[C@@H](CN(CC(C)C)S(=O)(=O)c3ccc4c(c3)OCO4)OC(=O)COCCOCC(=O)N(C)CCc3ccccn3)cc2)cs1
Cmax ([3]; read-out: Cmax): 513 ng/mL
AUC ([4]; read-out: AUC): 4220 ng·h/mL

Cc1nc(COc2ccc(C[C@H](NC(=O)O[C@H]3CO[C@H]4OCC[C@H]43)[C@@H](CN(CC(C)C)S(=O)(=O)c3ccc4c(c3)OCO4)OC(=O)COC(=O)CN3CCOCC3)cc2)cs1
Cmax ([3]; read-out: Cmax): 1280 ng/mL
AUC ([4]; read-out: AUC): > 4000 ng·h/mL

Cc1nc(COc2ccc(C[C@H](NC(=O)O[C@H]3CO[C@H]4OCC[C@H]43)[C@@H](CN(CC(C)C)S(=O)(=O)c3ccc4c(c3)OCO4)OC(=O)COC(=O)CN(C)CCc3ccccn3)cc2)cs1
Cmax ([3]; read-out: Cmax): 791 ng/mL
AUC ([4]; read-out: AUC): 5350 ng·h/mL

CC(C)(C)NC(=O)[C@H]1N(C(=O)[C@@H](OC(=O)COc2ccccc2)[C@@H](N)Cc2ccccc2)CSC1(C)C.Cl
solubility [5]: 21 mg/mL
half-life [6]: < 1 min
half-life [7]: 3.2 min
half-life [8]: 24 min

Cc1cccc(C)c1OCC(=O)N[C@@H](Cc1ccccc1)[C@H](O)C(=O)N1CSC[C@H]1C(=O)NC(C)(C)C
solubility [5]: 0.023 mg/mL (≈ 0.0436 mM)

Cc1ccccc1OCC(=O)O[C@H](C(=O)N1CSC(C)(C)[C@H]1C(=O)NC(C)(C)C)[C@@H](N)Cc1ccccc1.Cl
solubility [5]: 14 mg/mL
half-life [6]: < 1 min
half-life [7]: 2.6 min
half-life [8]: 20.8 min

Cc1cccc(C)c1OCC(=O)N[C@@H](Cc1ccccc1)[C@H](OC(=O)CCC(=O)NCc1cccnc1)C(=O)N1CSC(C)(C)[C@H]1C(=O)NC(C)(C)C
solubility [1]: 30.3 mg/mL (≈ 40.6 mM)

Cc1ccccc1OCC(=O)N[C@@H](Cc1ccccc1)[C@H](O)C(=O)N1CSC[C@H]1C(=O)NC(C)(C)C
solubility [5]: 0.042 mg/mL (≈ 0.0818 mM)

COCCN(C)CC(=O)OCC(=O)O[C@H](CN(CC(C)C)S(=O)(=O)c1ccc2c(c1)OCO2)[C@H](Cc1ccc(OCc2csc(C)n2)cc1)NC(=O)O[C@H]1CO[C@H]2OCC[C@H]21
Cmax ([3]; read-out: Cmax): 407 ng/mL
AUC ([4]; read-out: AUC): 4710 ng·h/mL

CC(C)[C@@H](N)C(=O)N[C@@H](C(=O)O[C@H](CN1C[C@H]2CCCC[C@H]2C[C@H]1C(=O)NC(C)(C)C)[C@H](Cc1ccccc1)NC(=O)[C@H](CC(N)=O)NC(=O)c1ccc2ccccc2n1)C(C)C
half-life [9]: 296 min

Cc1cccc(C)c1OCC(=O)N[C@@H](Cc1ccccc1)[C@H](OC(=O)CCCC(=O)NCCN)C(=O)N1CSC(C)(C)[C@H]1C(=O)NC(C)(C)C
solubility [1]: 50.3 mg/mL (≈ 70.7 mM)

Cc1cccc(C)c1OCC(=O)N[C@@H](Cc1ccccc1)[C@H](OC(=O)CCC(=O)NCCCN1CCOCC1)C(=O)N1CSC(C)(C)[C@H]1C(=O)NC(C)(C)C
solubility [1]: 73.6 mg/mL (≈ 94.1 mM)

Cc1ccccc1OCC(=O)O[C@H](C(=O)N1CSC[C@H]1C(=O)NC(C)(C)C)[C@@H](N)Cc1ccccc1.Cl
solubility [5]: 15 mg/mL
half-life [6]: < 1 min
half-life [7]: 2.4 min
half-life [8]: 19.6 min

Cc1nc(COc2ccc(C[C@H](NC(=O)O[C@H]3CO[C@H]4OCC[C@H]43)[C@@H](CN(CC(C)C)S(=O)(=O)c3ccc4c(c3)OCO4)OC(=O)CONC(=N)N)cc2)cs1
Cmax ([3]; read-out: Cmax): 460 ng/mL
AUC ([4]; read-out: AUC): > 5000 ng·h/mL

Cc1cccc(C)c1OCC(=O)N[C@@H](Cc1ccccc1)[C@H](OC(=O)CCC(=O)NCCN1CCCCC1)C(=O)N1CSC(C)(C)[C@H]1C(=O)NC(C)(C)C
solubility [1]: 47.8 mg/mL (≈ 62.4 mM)

Cc1cccc(CN(C)CCOCC(=O)O[C@H](CN(CC(C)C)S(=O)(=O)c2ccc3c(c2)OCO3)[C@H](Cc2ccc(OCc3csc(C)n3)cc2)NC(=O)O[C@H]2CO[C@H]3OCC[C@H]32)n1
Cmax ([3]; read-out: Cmax): 401 ng/mL
AUC ([4]; read-out: AUC): 4020 ng·h/mL

Cc1nc(COc2ccc(C[C@H](NC(=O)O[C@H]3CO[C@H]4OCC[C@H]43)[C@@H](CN(CC(C)C)S(=O)(=O)c3ccc4c(c3)OCO4)OC(=O)COCCn3ccnc3)cc2)cs1
Cmax ([3]; read-out: Cmax): 322 ng/mL
AUC ([4]; read-out: AUC): > 5000 ng·h/mL

Cc1cccc(C)c1OCC(=O)N[C@@H](Cc1ccccc1)[C@H](OC(=O)CCC(=O)NCCN1CCOCC1)C(=O)N1CSC(C)(C)[C@H]1C(=O)NC(C)(C)C
solubility [1]: 53.2 mg/mL (≈ 69.3 mM)

Cc1ccccc1OCC(=O)N[C@@H](Cc1ccccc1)[C@H](O)C(=O)N1CSC(C)(C)[C@H]1C(=O)NC(C)(C)C
solubility [5]: 0.018 mg/mL (≈ 0.0332 mM)

Cc1cccc(C)c1OCC(=O)N[C@@H](Cc1ccccc1)[C@H](OC(=O)CCC(=O)NCc1ccccn1)C(=O)N1CSC(C)(C)[C@H]1C(=O)NC(C)(C)C
solubility [1]: 31.9 mg/mL (≈ 42.8 mM)

Cc1cccc(C)c1OCC(=O)N[C@@H](Cc1ccccc1)[C@H](OC(=O)CCCC(=O)NCCN1CCOCC1)C(=O)N1CSC(C)(C)[C@H]1C(=O)NC(C)(C)C
solubility [1]: 57.1 mg/mL (≈ 73 mM)

CC(C)(C)NC(=O)[C@@H]1CSCN1C(=O)[C@@H](O)[C@H](Cc1ccccc1)NC(=O)COc1ccccc1
solubility [5]: 0.123 mg/mL (≈ 0.246 mM)

COCCN(CCOC)CC(=O)OCC(=O)O[C@H](CN(CC(C)C)S(=O)(=O)c1ccc2c(c1)OCO2)[C@H](Cc1ccc(OCc2csc(C)n2)cc1)NC(=O)O[C@H]1CO[C@H]2OCC[C@H]21
Cmax ([3]; read-out: Cmax): 1280 ng/mL
AUC ([4]; read-out: AUC): > 4000 ng·h/mL
